In patent publication US11033539B2, “Compounds of formulas (VII), (VIII), (IX), (XI), (XII), (XIII), and (XIV) as muscarinic receptor 4(M4) antagonists for treating neurological diseases” (Neurocrine Biosciences, Inc., priority 2015, dated 2021) one finds Ki data, which are given here for 33 molecules.

In the assay the target is human M4 receptor (Homo sapiens (Human), UniProt P08173). Kind of assay: Radioligand (tritiated N-methylscopolamine) binding assay, M4. The settings on record: Ki against the M4 receptor; membranes from CHO cells expressing human M4; tritiated N-methylscopolamine 1.5 nM; read-out: Ki. The protocol: Binding affinity (Ki) of compounds was measured by inhibition of radioligand binding to membranes from CHO cells expressing human M1, M2, M3, M4 and M5 receptors. Membranes were prepared by nitrogen cavitation and differential centrifugation as previously described (Hoare et al., Mol. Pharmacol. 2003 March; 63(3): 751-65). The radioligand employed was tritiated N-methylscopolamine, used at a concentration of 1.5 nM. A dose-response of twelve concentrations of compound was used, ranging from 10 μM to […]. The assay buffer was 50 mM HEPES, 100 mM NaCl, 5 mM MgCl2, 1 mM ethylenediaminetetraacetic acid, pH-adjusted to pH 7.4. Membranes, radioligand and compound were incubated together for 90 minutes at 37° C., in a total volume of 150 μl in a 96-well plate. Receptor-bound radioligand was then collected by harvesting the assay over glass fiber filters pretreated with polyethylenimine to trap the cell membranes, using rapid vacuum filtration. Harvesting and radioactivity counting was conducted as previously described (see, e.g., Hoare et al., Mol. Pharmacol. 2003 63(3):751-65); Erratum at Mol. Pharmacol. 2005 July; 68(1): 260).
Sequence of human M4 receptor (P08173 whole entry): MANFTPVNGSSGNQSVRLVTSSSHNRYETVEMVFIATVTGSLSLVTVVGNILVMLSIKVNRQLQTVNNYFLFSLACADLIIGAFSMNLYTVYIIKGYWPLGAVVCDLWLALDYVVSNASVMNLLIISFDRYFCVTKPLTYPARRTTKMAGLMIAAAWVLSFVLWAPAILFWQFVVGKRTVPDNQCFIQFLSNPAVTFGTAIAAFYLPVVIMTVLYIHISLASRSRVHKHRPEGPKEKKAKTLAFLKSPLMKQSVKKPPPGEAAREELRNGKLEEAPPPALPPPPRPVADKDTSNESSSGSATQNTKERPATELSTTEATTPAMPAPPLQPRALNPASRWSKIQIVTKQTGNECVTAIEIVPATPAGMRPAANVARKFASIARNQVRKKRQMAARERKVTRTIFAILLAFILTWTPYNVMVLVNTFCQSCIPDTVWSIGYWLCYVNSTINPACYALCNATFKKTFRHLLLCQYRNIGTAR

The Ki is the dissociation constant of the complex between target and ligand, obtained from inhibition or displacement. With “4-(benzyloxy)-N-{2-[1-(pyridin-3-ylmethyl)piperidin-4-yl]ethyl}benzamide [11-20]”, the Ki lay within 100 to 1000 nM.
For “4-phenoxy-N-{2-[1-(3-phenylpropyl)piperidin-4-yl]ethyl}benzamide [11-28]” the value was 100 to 1000 nM; for `CC(=O)O[C@H](CNC(=O)N1CCN(c2ccc(F)c(C#N)c2)C[C@H]1C)C1CCN(Cc2ccccc2)CC1` [3-2, (1S)-1-(1-benzylpiperidin-4-yl)-2-{[(2R)-4-(3-cyano-4-fluorophenyl)-2-methylpiperazine-1-carbonyl]amino}ethyl acetate], 10 to 100 nM.
For `C[C@@H]1CN(c2ccc(F)c(C#N)c2)CCN1C(=O)N(C)C[C@@H](O)C1CCN(Cc2ccccc2)CC1` [3-3, (2R)-N-[(2S)-2-(1-benzylpiperidin-4-yl)-2-hydroxyethyl]-4-(3-cyano-4-fluorophenyl)-N,2-dimethylpiperazine-1-carboxamide] the value was 100 to 1000 nM; for `C[C@@H]1CN(c2ccc(F)c(C#N)c2)CCN1C(=O)N(C)CCC1CCN(Cc2ccccc2)CC1` [3-4, (2R)-N-[2-(1-benzylpiperidin-4-yl)ethyl]-4-(3-cyano-4-fluorophenyl)-N,2-dimethylpiperazine-1-carboxamide], 100 to 1000 nM; for `CO[C@H](CNC(=O)N1CCN(c2ccc(F)c(C#N)c2)C[C@H]1C)C1CCN(Cc2ccccc2)CC1` [3-6, (2R)-N-[(2S)-2-(1-benzylpiperidin-4-yl)-2-methoxyethyl]-4-(3-cyano-4-fluorophenyl)-2-methylpiperazine-1-carboxamide], 10 to 100 nM.
As to `C[C@@H]1CN(c2ccc(OC(F)(F)F)c(C#N)c2)CCN1C(=O)NCCC1CCN(Cc2ccc(I)cc2)CC1` [3-7, (2R)-4-[3-cyano-4-(trifluoromethoxy)phenyl]-N-(2-{1-[(4-iodophenyl)methyl]piperidin-4-yl}ethyl)-2-methylpiperazine-1-carboxamide], the Ki is 10 to 100 nM.
As to `C[C@@H]1CN(c2nccc(C#N)n2)CCN1C(=O)NCCC1CCN(Cc2ccccc2)CC1` [3-15, (2R)-N-[2-(1-benzylpiperidin-4-yl)ethyl]-4-(4-cyanopyrimidin-2-yl)-2-methylpiperazine-1-carboxamide], the Ki lay in the range of 10 to 100 nM.
The result for `C[C@@H]1CN(c2cc(F)c(F)c(F)c2)CCN1C(=O)NCCC1(CO)CCN(Cc2ccccc2)CC1` [3-20, (2R)-N-{2-[1-benzyl-4-(hydroxymethyl)piperidin-4-yl]ethyl}-2-methyl-4-(3,4,5-trifluorophenyl)piperazine-1-carboxamide] reads 10 to 100 nM; that for `COc1ccnc(N2CCN(C(=O)NCCC3CCN(Cc4ccccc4)CC3)[C@H](C)C2)n1` [4-2, (2R)-N-[2-(1-benzylpiperidin-4-yl)ethyl]-4-(4-methoxypyrimidin-2-yl)-2-methylpiperazine-1-carboxamide], 100 to 1000 nM.
The result for `Cc1cc(N2CCN(C(=O)NCCC3CCN(Cc4ccccc4)CC3)[C@H](C)C2)ccc1C#N` [4-4, (2R)-N-[2-(1-benzylpiperidin-4-yl)ethyl]-4-(4-cyano-3-methylphenyl)-2-methylpiperazine-1-carboxamide] reads 100 to 1000 nM; that for `COc1cccnc1N1CCN(C(=O)NCCC2CCN(Cc3ccccc3)CC2)[C@H](C)C1` [4-8, (2R)-N-[2-(1-benzylpiperidin-4-yl)ethyl]-4-(3-methoxypyridin-2-yl)-2-methylpiperazine-1-carboxamide], 100 to 1000 nM; that for `Cc1ccc(N2CCN(C(=O)NCCC3CCN(Cc4ccccc4)CC3)[C@H](C)C2)cn1` [4-9, (2R)-N-[2-(1-benzylpiperidin-4-yl)ethyl]-2-methyl-4-(6-methylpyridin-3-yl)piperazine-1-carboxamide], 100 to 1000 nM.
As for `C[C@@H]1CN(c2cncc(C#N)c2)CCN1C(=O)NCCC1CCN(Cc2ccccc2)CC1` [4-23, (2R)-N-[2-(1-benzylpiperidin-4-yl)ethyl]-4-(5-cyanopyridin-3-yl)-2-methylpiperazine-1-carboxamide], the Ki was 100 to 1000 nM.
The result for `C[C@H]1CN(c2cc(F)c(F)c(F)c2)CCN1C(=O)NCCC1CCN(Cc2ccccc2)CC1` [4-24, (2S)-N-[2-(1-benzylpiperidin-4-yl)ethyl]-2-methyl-4-(3,4,5-trifluorophenyl)piperazine-1-carboxamide] reads 10 to 100 nM; that for `C[C@@H]1CN(c2ccc(C#N)cc2)CCN1C(=O)NCCC1CCN(Cc2ccccc2)CC1` [4-25, (2R)-N-[2-(1-benzylpiperidin-4-yl)ethyl]-4-(4-cyanophenyl)-2-methylpiperazine-1-carboxamide], 10 to 100 nM.
For `COc1nc(N2CCN(C(=O)NCCC3CCN(Cc4ccccc4)CC3)[C@H](C)C2)ncc1C#N` [4-26, (2R)-N-[2-(1-benzylpiperidin-4-yl)ethyl]-4-(5-cyano-4-methoxypyrimidin-2-yl)-2-methylpiperazine-1-carboxamide] the value was 10 to 100 nM; for `COc1nc(N2CCN(C(=O)NCCC3CCN(Cc4ccccc4)CC3)[C@H](C)C2)ncc1F` [4-27, (2R)-N-[2-(1-benzylpiperidin-4-yl)ethyl]-4-(5-fluoro-4-methoxypyrimidin-2-yl)-2-methylpiperazine-1-carboxamide], 10 to 100 nM; for `C[C@@H]1CN(c2ccc(F)cc2)CCN1C(=O)NCCC1CCN(Cc2ccccc2)CC1` [4-30, (2R)-N-[2-(1-benzylpiperidin-4-yl)ethyl]-4-(4-fluorophenyl)-2-methylpiperazine-1-carboxamide], 10 to 100 nM.
As for `C[C@@H]1CN(c2ccc(C#N)cn2)CCN1C(=O)NCCC1CCN(Cc2ccccc2)CC1` [4-31, (2R)-N-[2-(1-benzylpiperidin-4-yl)ethyl]-4-(5-cyanopyridin-2-yl)-2-methylpiperazine-1-carboxamide], the Ki fell in the range of 10 to 100 nM.
The result for `C[C@@H]1CN(c2ccc(F)cc2F)CCN1C(=O)NCCC1CCN(Cc2ccccc2)CC1` [4-33, (2R)-N-[2-(1-benzylpiperidin-4-yl)ethyl]-4-(2,4-difluorophenyl)-2-methylpiperazine-1-carboxamide] reads 10 to 100 nM.
On to `C[C@@H]1CN(c2ccc(C(F)(F)F)nc2)CCN1C(=O)NCCC1CCN(Cc2ccccc2)CC1` [4-34, (2R)-N-[2-(1-benzylpiperidin-4-yl)ethyl]-2-methyl-4-[6-(trifluoromethyl)pyridin-3-yl]piperazine-1-carboxamide], for which the inhibition constant (Ki) fell in the range of 10 to 100 nM.
On to `C[C@@H]1CN(c2ccc(F)nc2)CCN1C(=O)NCCC1CCN(Cc2ccccc2)CC1` [4-35, (2R)-N-[2-(1-benzylpiperidin-4-yl)ethyl]-4-(6-fluoropyridin-3-yl)-2-methylpiperazine-1-carboxamide], for which the inhibitory constant (Ki) was 10 to 100 nM.
For `C[C@@H]1CN(c2cc(F)c(F)cc2F)CCN1C(=O)NCCC1CCN(Cc2ccccc2)CC1` [4-36, (2R)-N-[2-(1-benzylpiperidin-4-yl)ethyl]-2-methyl-4-(2,4,5-trifluorophenyl)piperazine-1-carboxamide] the value was 10 to 100 nM.
For `C[C@@H]1CN(c2cccc(F)c2F)CCN1C(=O)NCCC1CCN(Cc2ccccc2)CC1` [4-37, (2R)-N-[2-(1-benzylpiperidin-4-yl)ethyl]-4-(2,3-difluorophenyl)-2-methylpiperazine-1-carboxamide] the value was 10 to 100 nM; for `C[C@@H]1CN(c2nc(C#N)cc(C#N)n2)CCN1C(=O)NCCC1CCN(Cc2ccccc2)CC1` [4-38, (2R)-N-[2-(1-benzylpiperidin-4-yl)ethyl]-4-(4,6-dicyanopyrimidin-2-yl)-2-methylpiperazine-1-carboxamide], 10 to 100 nM; for `COc1cc(C#N)cc(N2CCN(C(=O)NCCC3CCN(Cc4ccccc4)CC3)[C@H](C)C2)c1` [4-39, (2R)-N-[2-(1-benzylpiperidin-4-yl)ethyl]-4-(3-cyano-5-methoxyphenyl)-2-methylpiperazine-1-carboxamide], 10 to 100 nM.
For `C[C@@H]1CN(c2cnc3ccccc3c2)CCN1C(=O)NCCC1CCN(Cc2ccccc2)CC1` [4-40, (2R)-N-[2-(1-benzylpiperidin-4-yl)ethyl]-2-methyl-4-(quinolin-3-yl)piperazine-1-carboxamide] the value was 10 to 100 nM; for `C[C@@H]1CN(c2ncc(F)cn2)CCN1C(=O)NCCC1CCN(Cc2ccccc2)CC1` [4-41, (2R)-N-[2-(1-benzylpiperidin-4-yl)ethyl]-4-(5-fluoropyrimidin-2-yl)-2-methylpiperazine-1-carboxamide], 10 to 100 nM; for `C[C@@H]1CN(c2ccc(C#N)cc2F)CCN1C(=O)NCCC1CCN(Cc2ccccc2)CC1` [4-43, (2R)-N-[2-(1-benzylpiperidin-4-yl)ethyl]-4-(4-cyano-2-fluorophenyl)-2-methylpiperazine-1-carboxamide], 10 to 100 nM.
With `C[C@@H]1CN(c2ccc(C#N)s2)CCN1C(=O)NCCC1CCN(Cc2ccccc2)CC1` [4-44, (2R)-N-[2-(1-benzylpiperidin-4-yl)ethyl]-4-(5-cyanothiophen-2-yl)-2-methylpiperazine-1-carboxamide], the Ki was 10 to 100 nM.
For `C[C@@H]1CN(c2cc(F)ccc2F)CCN1C(=O)NCCC1CCN(Cc2ccccc2)CC1` [4-45, (2R)-N-[2-(1-benzylpiperidin-4-yl)ethyl]-4-(2,5-difluorophenyl)-2-methylpiperazine-1-carboxamide] the value was 10 to 100 nM.
For the molecule `C[C@@H]1CN(c2ccc(F)cn2)CCN1C(=O)NCCC1CCN(Cc2ccccc2)CC1` [4-46, (2R)-N-[2-(1-benzylpiperidin-4-yl)ethyl]-4-(5-fluoropyridin-2-yl)-2-methylpiperazine-1-carboxamide], the Ki lay within 10 to 100 nM.
